What was measured:
[1] = Release According to USP (USP Paddle, 50 rpm), 0.1 N HCl then phosphate buffer pH 6.8; type: physicochemical; settings: 0.1 N HCl 0-120 min, phosphate buffer pH 6.8 >120 min, 37° C.
Procedure: The term “release profile” refers to the pattern of release of the respective pharmacologically active substance over time, that is, the amount released over time. This may be measured either in vivo, e.g. indirectly by measuring the blood concentration, or preferably ex vivo, e.g. by the USP paddle method that allows for determination of the dissolution rate of the substance. […] Samples are withdrawn for determination of the amount of substance released in intervals of e.g. 30 or 60 min an analysed, e.g. spectrophotometrically, for example at 272 nm for caffeine, and/or using HPLC methods. A preferred method is described in the examples that may be used in analogy for other pharmaceuticals according to the invention. Preferred methods for analyzing blood or plasma levels of compounds are also described in the examples—analogous methods can be used for different active substances and are known int the art or easily derivable from the art. Where not indicated otherwise, percentages or other relative indications of amounts are given on a weight by weight (w:w) basis. The dissolution rate determination using the USP paddle apparatus has already been described above. The attrition rate of tablet cores for subsequent film-coating is preferably determined under standard conditions in a friabilator. The rate of attrition, i.e. the friability, is calculated. […] The crushing strength of tablets is determined in a tablet hardness tester (N=10). [table] [table] [table]

[2] = USP paddle test in phosphate buffer pH 6.8 of ethylcellulose-coated caffeine tablets; type: physicochemical
Procedure: The term “release profile” refers to the pattern of release of the respective pharmacologically active substance over time, that is, the amount released over time. This may be measured either in vivo, e.g. indirectly by measuring the blood concentration, or preferably ex vivo, e.g. by the USP paddle method that allows for determination of the dissolution rate of the substance. For example, a USP paddle apparatus operating at 37° C. and 50 rpm ist used and the preparations are tested in (e.g. 900 ml) artificial intestinal fluid, e.g. phosphate buffer pH 6.8; artificial gastric juice, e.g. 0.1 N HCl; or water. Samples are withdrawn for determination of the amount of substance released in intervals of e.g. 30 or 60 min an analysed, e.g. spectrophotometrically, for example at 272 nm for caffeine, and/or using HPLC methods.

## Cn1c(=O)c2c(ncn2C)n(C)c1=O [Caffeine]
[1]; Example 1 sachet formulation, 15 min
  Accumulated rel, Time (min) 15: 0.0%
[1]; Example 1 sachet formulation, 30 min
  Accumulated rel, Time (min) 30: 0.0%
[1]; Example 1 sachet formulation, 60 min
  Accumulated rel, Time (min) 60: 0.0%
[1]; Example 1 sachet formulation, 120 min
  Accumulated rel, Time (min) 120: 0.0%
[1]; Example 1 sachet formulation, 180 min
  Accumulated rel, Time (min) 180: 0.0%
[1]; Example 1 sachet formulation, 240 min
  Accumulated rel, Time (min) 240: 0.0%
[1]; Example 1 sachet formulation, 300 min
  Accumulated rel, Time (min) 300: 0.0%
[1]; Example 1 sachet formulation, 330 min
  Accumulated rel, Time (min) 330: 87.0%
[1]; Example 1 sachet formulation, 360 min
  Accumulated rel, Time (min) 360: 99.0%
[1]; Example 1 sachet formulation, 420 min
  Accumulated rel, Time (min) 420: 99.5%
[1]; Example 2 tablet formulation, 15 min
  Accumulated rel, Time (min) 15: 0.0%
[1]; Example 2 tablet formulation, 30 min
  Accumulated rel, Time (min) 30: 0.0%
[1]; Example 2 tablet formulation, 60 min
  Accumulated rel, Time (min) 60: 0.0%
[1]; Example 2 tablet formulation, 120 min
  Accumulated rel, Time (min) 120: 0.0%
[1]; Example 2 tablet formulation, 180 min
  Accumulated rel, Time (min) 180: 0.0%
[1]; Example 2 tablet formulation, 240 min
  Accumulated rel, Time (min) 240: 0.0%
[1]; Example 2 tablet formulation, 300 min
  Accumulated rel, Time (min) 300: 15.0%
[1]; Example 2 tablet formulation, 330 min
  Accumulated rel, Time (min) 330: 89.3%
[1]; Example 2 tablet formulation, 360 min
  Accumulated rel, Time (min) 360: 99.5%
[1]; Example 2 tablet formulation, 420 min
  Accumulated rel, Time (min) 420: 99.7%
[1]; Example 3 tablet formulation, 15 min
  Accumulated release, Time (min) 15: 0.0%
[1]; Example 3 tablet formulation, 30 min
  Accumulated release, Time (min) 30: 0.0%
[1]; Example 3 tablet formulation, 60 min
  Accumulated release, Time (min) 60: 0.0%
[1]; Example 3 tablet formulation, 120 min
  Accumulated release, Time (min) 120: 0.0%
[1]; Example 3 tablet formulation, 180 min
  Accumulated release, Time (min) 180: 0.0%
[1]; Example 3 tablet formulation, 240 min
  Accumulated release, Time (min) 240: 0.0%
[1]; Example 3 tablet formulation, 300 min
  Accumulated release, Time (min) 300: 5.3%
[1]; Example 3 tablet formulation, 330 min
  Accumulated release, Time (min) 330: 85.6%
[1]; Example 3 tablet formulation, 360 min
  Accumulated release, Time (min) 360: 99.0%
[1]; Example 3 tablet formulation, 420 min
  Accumulated release, Time (min) 420: 99.2%
[2]; Example 5 ethylcellulose-coated tablets, phosphate buffer pH 6.8, 5 out of six tested tablets
  time for releasing the complete amount of caffeine after release starts: ≤ 2 h
[2]; Example 5 test preparation: coated gelatine capsule with 6 caffeine tablets and 0.5 mg melatonin, stated from the properties of the tablets
  start of caffeine release after melatonin release: approximately 420 min
